Assay results as given in paper PMC4381582, “RNA interference screening identifies a novel role for PCTK1/CDK16 in medulloblastoma with c-Myc amplification” (Oncotarget, 2014).

Target: T1, PCTAIRE1 (PCTK1/CDK16) (Homo sapiens, UniProt Q00536)
T1 construct: recombinant GST-fusion or His-tagged protein from human cDNA, expressed in Sf9 insect cells or E. coli; with CycY (cyclin Y)
Experiment: radiometric protein kinase assay ([…]PanQinase) with GSK3([…]-27) peptide substrate
Type: biochemical

T1 sequence (Q00536 whole entry, the tested form may be a part): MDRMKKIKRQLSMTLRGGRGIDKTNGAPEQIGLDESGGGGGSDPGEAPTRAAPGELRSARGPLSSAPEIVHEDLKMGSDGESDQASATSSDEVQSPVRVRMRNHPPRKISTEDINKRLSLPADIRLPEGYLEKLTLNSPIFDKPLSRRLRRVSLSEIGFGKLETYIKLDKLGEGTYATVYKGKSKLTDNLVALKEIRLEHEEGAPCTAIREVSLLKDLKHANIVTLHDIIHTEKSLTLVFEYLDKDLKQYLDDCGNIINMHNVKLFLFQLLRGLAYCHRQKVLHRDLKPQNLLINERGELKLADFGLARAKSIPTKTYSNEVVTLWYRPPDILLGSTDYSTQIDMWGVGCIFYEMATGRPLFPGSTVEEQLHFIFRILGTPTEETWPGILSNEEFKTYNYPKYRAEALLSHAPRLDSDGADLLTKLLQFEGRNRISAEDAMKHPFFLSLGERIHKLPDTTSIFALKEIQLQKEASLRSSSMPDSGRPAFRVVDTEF
T1 sequence (Q8ND76 2-341 partner): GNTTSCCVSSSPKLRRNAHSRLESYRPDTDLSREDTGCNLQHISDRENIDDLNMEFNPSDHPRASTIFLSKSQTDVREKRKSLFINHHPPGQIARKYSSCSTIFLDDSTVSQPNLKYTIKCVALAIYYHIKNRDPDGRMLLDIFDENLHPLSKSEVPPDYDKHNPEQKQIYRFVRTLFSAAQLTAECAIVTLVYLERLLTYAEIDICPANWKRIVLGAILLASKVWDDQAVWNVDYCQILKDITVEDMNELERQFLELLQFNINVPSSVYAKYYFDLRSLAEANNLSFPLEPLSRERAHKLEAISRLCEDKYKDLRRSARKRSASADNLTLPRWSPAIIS

SMILES: O=C1Nc2ccccc2/C1=C1/Nc2ccccc2/C1=N\OCCC(O)CO (stereo not shown) [indirubin E804]
- IC50: 53 nM
